From publication PMC10205660 (Chemistry (Weinheim an der Bergstrasse, Germany), 2023)

What was measured:
[1] = test system: MCF7 (breast cancer); assay: Antiproliferative activity, MCF7; assay type: cell-based; settings: read-out: IC50 values MCF7; MCF7
[2] = test system: K562 (leukemia); assay: Antiproliferative activity, K562; assay type: cell-based; settings: read-out: IC50 values K562; K562
[3] = test system: A549 (lung cancer); assay: Antiproliferative activity, A549; assay type: cell-based; settings: read-out: IC50 values A549; A549
[4] = test system: HEK293; settings: read-out: IC50 against normal cell line HEK293; cited from earlier work
[5] = test system: MRC5; settings: read-out: IC50 against normal cell line MRC5; cited from earlier work
[6] = test system: Hsp90-dependent client proteins (pAkt, Cyclin D1, GLUT1), Hsp70, Hsp90 in MCF7 cells; settings: MCF7, 48-hour incubation; cited from earlier work

For `CCCC(O)C(C)C(=O)NC/C=C\CC(C)C(O)C(C)C1C/C=C\CC(C)C(O)Cc2cc(OC)cc(O)c2C(=O)O1` (stereo not drawn) [Compound 1, Cruentaren A, reference compound], the IC50 [1] was 4.67 nM, the IC50 [2] was 1.5 nM and the IC50 [3] was 0.75 nM. The IC50 [4] was greater than 500 nM, the IC50 [5] was greater than 500 nM and the “degradation of Hsp90-dependent client proteins” value [6] was “induced the degradation”.
